Test in all cases: relative viability (nuclei count vs DMSO), 5 days (fraction); higher = more cells survive
Compound in the assay “Crenolanib + Crizotinib”: CC1(COc2ccc3c(c2)ncn3-c2ccc3cccc(N4CCC(N)CC4)c3n2)COC1 [Crenolanib] + C[C@@H](Oc1cc(-c2cnn(C3CCNCC3)c2)cnc1N)c1c(Cl)ccc(F)c1Cl [Crizotinib] (partner 1 µM)
In a few lines:
(§1)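 After 5 days of treatment, lung cancer cells in 1536-well plates were fixed and stained in a single step (final 0.05% Triton X-100, 1% formaldehyde, 1 ug/ml Hoechst) and their nuclei counted on 4× images. Treatment had been applied by pin tool the day after seeding as one drug alone or as a fixed anchor-drug dose with five library-drug doses (not always all listed) in √10 steps. Relative viability is the nuclei count of treated wells divided by that of vehicle wells, and values are medians of duplicate plates.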

Compound in the assay “Crenolanib + Bortezomib”: CC1(COc2ccc3c(c2)ncn3-c2ccc3cccc(N4CCC(N)CC4)c3n2)COC1 [Crenolanib] + CC(C)C[C@H](NC(=O)[C@H](Cc1ccccc1)NC(=O)c1cnccn1)B(O)O [Bortezomib] (partner 0.002 µM)
In a few lines: as §1

Compound in the assay “Tivantinib + Bortezomib”: O=C1NC(=O)[C@@H](c2cn3c4c(cccc24)CCC3)[C@@H]1c1c[nH]c2ccccc12 [Tivantinib] + CC(C)C[C@H](NC(=O)[C@H](Cc1ccccc1)NC(=O)c1cnccn1)B(O)O [Bortezomib] (partner 0.002 µM)
In a few lines: as §1

Compound in the assay “Tivantinib + AZD7762”: O=C1NC(=O)[C@@H](c2cn3c4c(cccc24)CCC3)[C@@H]1c1c[nH]c2ccccc12 [Tivantinib] + NC(=O)Nc1cc(-c2cccc(F)c2)sc1C(=O)N[C@H]1CCCNC1 [AZD7762] (partner 0.2 µM)
In a few lines:
as §1

Consider PC-3 [JPC-3], for which the relative viability with Crenolanib + Crizotinib (first compound 0.01 µM) worked out at 0.975; in the assay with Crenolanib + Crizotinib (first compound 0.03162 µM), 0.958; with Crenolanib + Crizotinib (first compound 0.1 µM) it was 0.907; in the assay with Crenolanib + Crizotinib (first compound 0.3162 µM) it was 1.05; in the assay with Crenolanib + Crizotinib (first compound 1 µM), 0.991; in the assay with Crenolanib + Bortezomib (first compound 0.01 µM), 0.814. For the same cell line, the relative viability with Crenolanib + Bortezomib (first compound 0.03162 µM) amounted to 0.889; with Crenolanib + Bortezomib (first compound 0.1 µM), 0.779; with Crenolanib + Bortezomib (first compound 0.3162 µM) it was 0.831; in the assay with Crenolanib + Bortezomib (first compound 1 µM), 0.749; with Tivantinib + Bortezomib (first compound 0.01 µM), 0.839; in the assay with Tivantinib + Bortezomib (first compound 0.03162 µM) it was 0.899. Besides, the relative viability amounted to 0.863 with Tivantinib + Bortezomib (first compound 0.1 µM); 0.667 in the assay with Tivantinib + Bortezomib (first compound 0.3162 µM); 0.781 in the assay with Tivantinib + AZD7762 (first compound 0.01 µM); 0.823 in the assay with Tivantinib + AZD7762 (first compound 0.03162 µM); 0.884 with Tivantinib + AZD7762 (first compound 0.1 µM); 0.601 with Tivantinib + AZD7762 (first compound 0.3162 µM).

For the cell line NCI-H1703, the relative viability with Crenolanib + Crizotinib (first compound 0.01 µM) was 0.67; with Crenolanib + Crizotinib (first compound 0.03162 µM), 0.712; with Crenolanib + Crizotinib (first compound 0.1 µM) it was 0.147; in the assay with Crenolanib + Crizotinib (first compound 0.3162 µM) it was 0.219; in the assay with Crenolanib + Crizotinib (first compound 1 µM), 0.125; in the assay with Crenolanib + Bortezomib (first compound 0.01 µM), 0.419. In addition, the relative viability in the assay with Crenolanib + Bortezomib (first compound 0.03162 µM) worked out at 0.231; in the assay with Crenolanib + Bortezomib (first compound 0.1 µM), 0.218; in the assay with Crenolanib + Bortezomib (first compound 0.3162 µM) it was 0.207; with Crenolanib + Bortezomib (first compound 1 µM) it was 0.181; in the assay with Tivantinib + Bortezomib (first compound 0.01 µM), 0.36; in the assay with Tivantinib + Bortezomib (first compound 0.03162 µM), 0.362. Further, the relative viability stood at 0.29 with Tivantinib + Bortezomib (first compound 0.1 µM); 0.31 with Tivantinib + Bortezomib (first compound 0.3162 µM); 0.159 in the assay with Tivantinib + AZD7762 (first compound 0.01 µM); 0.152 in the assay with Tivantinib + AZD7762 (first compound 0.03162 µM); 0.114 with Tivantinib + AZD7762 (first compound 0.1 µM); 0.124 with Tivantinib + AZD7762 (first compound 0.3162 µM).

Turning to NCI-H1666, the relative viability with Crenolanib + Crizotinib (first compound 0.01 µM) amounted to 1.05; with Crenolanib + Crizotinib (first compound 0.03162 µM) it was 0.917; in the assay with Crenolanib + Crizotinib (first compound 0.1 µM) it was 1.01; with Crenolanib + Crizotinib (first compound 0.3162 µM) it was 0.885; in the assay with Crenolanib + Crizotinib (first compound 1 µM), 1; with Crenolanib + Bortezomib (first compound 0.01 µM) it was 0.9. For the same cell line, the relative viability in the assay with Crenolanib + Bortezomib (first compound 0.03162 µM) is 0.711; with Crenolanib + Bortezomib (first compound 0.1 µM) it was 0.858; with Crenolanib + Bortezomib (first compound 0.3162 µM), 1.01; in the assay with Crenolanib + Bortezomib (first compound 1 µM), 0.667; in the assay with Tivantinib + Bortezomib (first compound 0.01 µM), 0.856; in the assay with Tivantinib + Bortezomib (first compound 0.03162 µM), 0.828. The relative viability with Tivantinib + Bortezomib (first compound 0.1 µM) is 0.744; in the assay with Tivantinib + Bortezomib (first compound 0.3162 µM) it was 0.803; with Tivantinib + AZD7762 (first compound 0.01 µM), 0.904; with Tivantinib + AZD7762 (first compound 0.03162 µM) it was 0.841; in the assay with Tivantinib + AZD7762 (first compound 0.1 µM), 0.835; in the assay with Tivantinib + AZD7762 (first compound 0.3162 µM), 0.705.

For NCI-H1792, the relative viability was found to be 1.05 with Crenolanib + Crizotinib (first compound 0.01 µM); 0.958 with Crenolanib + Crizotinib (first compound 0.03162 µM); 0.933 with Crenolanib + Crizotinib (first compound 0.1 µM); 1.17 in the assay with Crenolanib + Crizotinib (first compound 0.3162 µM); 0.943 in the assay with Crenolanib + Crizotinib (first compound 1 µM); 1.03 with Crenolanib + Bortezomib (first compound 0.01 µM). Further, the relative viability with Crenolanib + Bortezomib (first compound 0.03162 µM) came to 0.882; in the assay with Crenolanib + Bortezomib (first compound 0.1 µM), 0.879; with Crenolanib + Bortezomib (first compound 0.3162 µM) it was 1.13; with Crenolanib + Bortezomib (first compound 1 µM), 0.94; with Tivantinib + Bortezomib (first compound 0.01 µM), 0.943; with Tivantinib + Bortezomib (first compound 0.03162 µM), 0.968. Moreover, the relative viability was found to be 0.927 with Tivantinib + Bortezomib (first compound 0.1 µM); 0.813 with Tivantinib + Bortezomib (first compound 0.3162 µM); 0.653 with Tivantinib + AZD7762 (first compound 0.01 µM); 0.644 with Tivantinib + AZD7762 (first compound 0.1 µM); 0.589 with Tivantinib + AZD7762 (first compound 0.3162 µM).

NCI-H727: the relative viability with Crenolanib + Crizotinib (first compound 0.01 µM) was 0.858; with Crenolanib + Crizotinib (first compound 0.03162 µM) it was 0.956; with Crenolanib + Crizotinib (first compound 0.1 µM), 0.806; with Crenolanib + Crizotinib (first compound 0.3162 µM), 0.973; with Crenolanib + Crizotinib (first compound 1 µM) it was 0.824; in the assay with Crenolanib + Bortezomib (first compound 0.01 µM), 0.905. In addition, the relative viability is 0.92 with Crenolanib + Bortezomib (first compound 0.03162 µM); 0.821 in the assay with Crenolanib + Bortezomib (first compound 0.1 µM); 0.869 with Crenolanib + Bortezomib (first compound 0.3162 µM); 0.991 with Crenolanib + Bortezomib (first compound 1 µM); 0.751 with Tivantinib + Bortezomib (first compound 0.01 µM); 0.772 in the assay with Tivantinib + Bortezomib (first compound 0.03162 µM). Besides, the relative viability in the assay with Tivantinib + Bortezomib (first compound 0.1 µM) was 0.867; with Tivantinib + AZD7762 (first compound 0.01 µM), 0.535; with Tivantinib + AZD7762 (first compound 0.03162 µM), 0.421; with Tivantinib + AZD7762 (first compound 0.1 µM), 0.551.

Regarding HCC-15, the relative viability with Crenolanib + Crizotinib (first compound 0.01 µM) stood at 0.944; with Crenolanib + Crizotinib (first compound 0.03162 µM), 0.815; in the assay with Crenolanib + Crizotinib (first compound 0.1 µM), 0.847; in the assay with Crenolanib + Crizotinib (first compound 0.3162 µM), 0.8; with Crenolanib + Crizotinib (first compound 1 µM), 0.727; in the assay with Crenolanib + Bortezomib (first compound 0.01 µM), 1.15. Moreover, the relative viability was determined as 1.01 with Crenolanib + Bortezomib (first compound 0.03162 µM); 0.909 in the assay with Crenolanib + Bortezomib (first compound 0.1 µM); 1.05 in the assay with Crenolanib + Bortezomib (first compound 0.3162 µM); 0.956 in the assay with Crenolanib + Bortezomib (first compound 1 µM); 0.949 with Tivantinib + Bortezomib (first compound 0.01 µM); 0.995 with Tivantinib + Bortezomib (first compound 0.03162 µM). Moreover, the relative viability was determined as 0.943 with Tivantinib + Bortezomib (first compound 0.1 µM); 1.04 with Tivantinib + Bortezomib (first compound 0.3162 µM); 1.27 with Tivantinib + AZD7762 (first compound 0.01 µM); 1.34 in the assay with Tivantinib + AZD7762 (first compound 0.03162 µM); 1.15 in the assay with Tivantinib + AZD7762 (first compound 0.1 µM); 1.29 with Tivantinib + AZD7762 (first compound 0.3162 µM).

NCI-H647: the relative viability turned out to be 1.07 with Crenolanib + Crizotinib (first compound 0.01 µM); 1.03 with Crenolanib + Crizotinib (first compound 0.03162 µM); 1.03 with Crenolanib + Crizotinib (first compound 0.1 µM); 1.01 in the assay with Crenolanib + Crizotinib (first compound 0.3162 µM); 1.03 with Crenolanib + Crizotinib (first compound 1 µM); 1.03 in the assay with Crenolanib + Bortezomib (first compound 0.01 µM). Further, the relative viability is 0.94 with Crenolanib + Bortezomib (first compound 0.03162 µM); 0.974 with Crenolanib + Bortezomib (first compound 0.1 µM); 1.16 with Crenolanib + Bortezomib (first compound 0.3162 µM); 0.888 in the assay with Crenolanib + Bortezomib (first compound 1 µM); 0.977 with Tivantinib + Bortezomib (first compound 0.01 µM); 0.848 with Tivantinib + Bortezomib (first compound 0.03162 µM). Also, the relative viability with Tivantinib + Bortezomib (first compound 0.1 µM) turned out to be 0.775; in the assay with Tivantinib + Bortezomib (first compound 0.3162 µM), 1.14; with Tivantinib + AZD7762 (first compound 0.01 µM), 0.509; in the assay with Tivantinib + AZD7762 (first compound 0.03162 µM), 0.314; with Tivantinib + AZD7762 (first compound 0.1 µM) it was 0.445; with Tivantinib + AZD7762 (first compound 0.3162 µM), 0.585.

In the case of NCI-H2347, the relative viability with Crenolanib + Crizotinib (first compound 0.01 µM) amounted to 0.934; with Crenolanib + Crizotinib (first compound 0.03162 µM), 0.624; with Crenolanib + Crizotinib (first compound 0.1 µM), 0.506; in the assay with Crenolanib + Crizotinib (first compound 0.3162 µM), 0.59; with Crenolanib + Crizotinib (first compound 1 µM) it was 0.72; with Crenolanib + Bortezomib (first compound 0.01 µM), 1.16. The relative viability in the assay with Crenolanib + Bortezomib (first compound 0.03162 µM) stood at 0.724; with Crenolanib + Bortezomib (first compound 0.3162 µM), 0.727; with Crenolanib + Bortezomib (first compound 1 µM), 1.19; in the assay with Tivantinib + Bortezomib (first compound 0.01 µM), 1.07; with Tivantinib + Bortezomib (first compound 0.03162 µM), 1.01; with Tivantinib + Bortezomib (first compound 0.1 µM), 1.13. Moreover, the relative viability in the assay with Tivantinib + Bortezomib (first compound 0.3162 µM) was 1.01; with Tivantinib + AZD7762 (first compound 0.01 µM), 0.848; in the assay with Tivantinib + AZD7762 (first compound 0.03162 µM), 0.727; with Tivantinib + AZD7762 (first compound 0.1 µM), 0.669; with Tivantinib + AZD7762 (first compound 0.3162 µM), 0.534.

The values are drawn from the supplement of paper PMC10307832.
